The subject of assay [1] is Staphylococcus aureus (G+ve) bacteria. As to the kind of experiment: Zone of inhibition (ZI) paper disc test, antibacterial/antioxidant activity. It counts as cell-based. On the procedure:
Tests were conducted to check the antioxidant/antibacterial activity of macrocycle and host-guest compounds. 5 uL of 0.01M compound, 5 uL (premixed, 0.01M compound+1M Pyrogallol, 1:1) and 5 uL (premixed, 0.01M compound+0.88M H2O2, 1:1) were added on paper discs placed on plates. 5 uL of 1M pyrogallol, 5 uL of 0.88M H2O2 were used as control (oxidants). In the following tables, Decrease/Increase means wrt pure H2O2 or pyrogallol. […] Zone=mm of zone width around disk.

For another assay, the system named is E. Coli (G-ve) bacteria. The description is as above. It counts as cell-based. On the procedure: (§1) Tests were conducted to check the antioxidant/antibacterial activity of macrocycle and host-guest compounds. 5 uL of 0.01M compound, 5 uL (premixed, 0.01M compound+1M Pyrogallol, 1:1) and 5 uL (premixed, 0.01M compound+0.88M H2O2, 1:1) were added on paper discs placed on plates. 5 uL of 1M pyrogallol, 5 uL of 0.88M H2O2 were used as control (oxidants). In the following tables, Decrease/Increase means wrt pure H2O2 or pyrogallol. […] Zone=mm of zone width around disk. Decrease/Increase wrt pure H2O2 or pyrogallol.

The test system of assay [2] is Pseudomonas aeruginosa (G-ve) bacteria. Described as above. The class given is cell-based. As to the method: as §1
Assay [3] concerns klebsiella pneumoniae (G -ve) bacteria. The assay is described as above. The class given is cell-based. As to the method:
as §1

For the next assay, the system named is S. aureus (MU50). Nature of the assay: Broth serial dilution MIC / growth inhibition in 96-well plate. The class given is cell-based, Staphylococcus aureus. As to the method: (§2) 3 mg/ml stock solutions of PFD, RsC1, RsC1-PFD (1:1 complex), RsC4, and RsC4-PFD (1:1 complex) were prepared in DMSO (bcoz host soluble in DMSO solution). From the stock, a working solution 4× (highest conc. for each compound in plate) was prepared in LB media. 50 uL of LB media was first added in each well (96 well plate). Then a 4× solution of the respective compound was added to the first row (A4-A12) except A1-A3 (Positive control/bacterial innoculum). Then, the 4× was serially diluted up to well G for all 3 compounds. (A-G). Then, a 50 uL aliquot of the 100-fold diluted bacterial inoculum was added in each test well. Individual test concentrations (in triplicate wells in a 96-well plate) for the given compounds were achieved by serial dilution by using LB medium. Total volume in each well is 100 uL. The final-test concentration range for the individual test compounds for C. acnes, S. aureus and P. aeruginosa are as follows: PFD, RsC1, RsC4, RsC1-PFD complex and RsC4-PFD complex (128-2 ug/mL).

The next assay relates to P. aeruginosa (BAMF). The description is as above. The class given is cell-based, Pseudomonas aeruginosa. As to the method: as §2
Another assay concerns C. acnes. The assay is described as above. The class given is cell-based, Cutibacterium acnes. On the procedure: 3 mg/ml stock solutions of RsC1, PFD and RsC1-PFD were prepared in DMSO (bcoz host soluble in DMSO solution). From the stock, a working solution 4× (highest conc. for each compound in plate) was prepared in LB media. 50 uL of LB media were first added in each well (96 well plate). Then a 4× solution of each respective compound was added to the first row (A4-A12) except A1-A3 (Positive control/bacterial innoculum). Then the 4× was serially diluted up to well G for all 3 compounds. (A-G). Then, a 50 uL aliquot of the 100-fold diluted bacterial inoculum was added in each test well. Individual test concentrations (in triplicate wells in a 96-well plate) for the given compounds were achieved by serial dilution by using LB medium. Total volume in each well was 100 uL. The final-test concentration range for the individual test compounds for C. acne were as follows: Macrocycle, PFD and RsC1-PFD complex (128-2 ug/mL). The results are shown in FIG. 10, which is a bar plot of absorbance (at 600 nm) at various test compound concentrations, showing the percent inhibition of pathogen growth in the presence of decreasing concentrations of the test compounds using a twofold dilution series.
as §2, with “RsC4-PFD” for “RsC1, RsC1-PFD”, “complex),” for “complex), RsC4,”, “RsC4” for “RsC4-PFD (1:1 complex)”, “acne” for “acnes, S. aureus and P. aeruginosa are”, “Macrocycle, PFD” for “PFD, RsC1, RsC4, RsC1-PFD complex”
as §2

Setting [4] is: from ZI change with H2O2 / pyrogallol.
The mark [5] stands for this setting: premixed 0.01M compound + 0.88M H2O2, 1:1.
[6] abbreviates: premixed 0.01M compound + 1M Pyrogallol, 1:1.
Setting [7] is: test range 128-2 ug/mL, LB medium.

Values after ≈ are worked out from the molar mass of the structure shown.

Turning to `CCCCC1c2cc(c(O)cc2O)C(CCCC)c2cc(c(O)cc2O)C(CCCC)c2cc(c(O)cc2O)C(CCCC)c2cc1c(O)cc2O` (centres unmarked) [RsC4, C-butylresorcin[4]arene], the “Inference: radical scavenger” value was “Low radical” in assay [1] (setting [4]), “Moderate” with E. Coli (G-ve) bacteria (setting [4]), “Low radical” in assay [2] (setting [4]) and “High OH” in assay [3] (setting [4]). Further, the “Inference: Anti-bacterial potential” value in assay [1] (from ZI of pure compound) is “none”. Moreover, the “Zone of inhibition (ZI), 5 uL of (Compound + H2O2)” value in assay [1] (premixed 0.01M compound + 0.88M H2O2, 1:1, decrease vs pure H2O2 = antioxidant) is reported as “(3.6 mm)”; in the assay on E. Coli (G-ve) bacteria (setting [5]), “(1.7 mm)”; in assay [2] (setting [5]), “(2.1 mm)”; in assay [3] (setting [5]) it was “No ZI”. Also, the “Zone of inhibition (ZI), 5 uL of (Compound + Pyrogallol)” value in assay [1] (premixed 0.01M compound + 1M Pyrogallol, 1:1, decrease vs pure pyrogallol = antioxidant) was “(2.3 mm)”; with E. Coli (G-ve) bacteria (setting [6]) it was “No ZI”; in assay [2] (setting [6]) it was “(1.4 mm)”; in assay [3] (setting [6]), “No ZI”. Besides, the “Zone of inhibition (ZI), 5 uL of 0.01M Compound” value was “No ZI” in assay [1] (pure compound on paper disc, zone width around disk); “No ZI” in the assay on E. Coli (G-ve) bacteria (pure compound on paper disc); “No ZI” in assay [2] (pure compound on paper disc); “No ZI” in assay [3] (pure compound on paper disc). Moreover, the “GI (growth inhibition)” value in the assay on S. aureus (MU50) (at the MIC concentration) came to 52%; with P. aeruginosa (BAMF) (at the MIC concentration) it was 56%; in the assay on C. acnes (at the MIC concentration) it was 98%. The figures for the minimal inhibitory concentration (MIC) with S. aureus (MU50) (setting [7]), against P. aeruginosa (BAMF) (setting [7]) and against C. acnes (setting [7]) were 128 µg/mL (≈ 180 µM), 64 µg/mL (≈ 89.8 µM) and 128 µg/mL (≈ 180 µM), respectively.

The term MIC denotes the least concentration at which growth counts as inhibited. Lower therefore signals greater potency.
